In article PMC3907409, “A Cytoplasmic New Catalytic Subunit of Calcineurin in Trypanosoma cruzi and Its Molecular and Functional Characterization” (PLoS Neglected Tropical Diseases, 2014):

Target: T1, TcCaNA2 (Trypanosoma cruzi, UniProt G9B7N4)
T1 construct: gene CaNA2; tag cleavage not mentioned; primers from CL Brener XM_816360.1
Assay: colorimetric phosphatase assay, absorbance at […] nm
Type: biochemical
Settings: 80 mM p-NPP, 1 µg enzyme, 15 min at 30 °C; 1 mM MnCl2 or NiCl2 (also CaCl2, MgCl2)

T1 sequence (G9B7N4 entry or part of it): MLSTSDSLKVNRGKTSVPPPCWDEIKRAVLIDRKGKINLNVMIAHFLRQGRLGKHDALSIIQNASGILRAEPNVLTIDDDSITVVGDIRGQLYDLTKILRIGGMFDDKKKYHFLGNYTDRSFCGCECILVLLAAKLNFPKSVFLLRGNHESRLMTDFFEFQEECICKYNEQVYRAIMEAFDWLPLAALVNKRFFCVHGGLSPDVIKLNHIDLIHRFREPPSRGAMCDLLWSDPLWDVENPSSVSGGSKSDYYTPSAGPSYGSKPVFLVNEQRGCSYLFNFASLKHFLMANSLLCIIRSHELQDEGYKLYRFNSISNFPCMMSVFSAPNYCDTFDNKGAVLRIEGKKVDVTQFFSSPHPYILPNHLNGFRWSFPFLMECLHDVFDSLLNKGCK

With `O=[N+]([O-])c1ccc(OP(=O)(O)O)cc1` [p-nitrophenyl phosphate] the “colorimetric phosphatase assay, absorbance at 405 nm” value was “The recombinant protein TcCaNA2 showed enzymatic activity using p-NPP as substrate”.
